Data taken from US20230218589A1, “COMPOUND FOR PREVENTION OR TREATMENT OF A SKIN CANCER OR SKIN PRECANCER” (UNIQUEST PTY LTD, priority 2020, published 2023).
Entries after “also recorded” stand apart in the source; their conditions may differ.

Columns and labels:
CD8+ T cells = test: Mouse T cell proliferation assay (Cell Trace Violet, 7AAD, flow cytometry); format: cell-based; settings: 3 days
Description: Spleens, inguinal and brachial lymph nodes were harvested from two C57BL/6 mice in sterile conditions and placed in sterile Phosphate Buffered Saline (PBS), then cells were dissociated into a single cell suspension by gently crushing all organs through a 70 μm cell strainer. Cells were washed through the strainer into a 50 mL falcon tube with 5 mL sterile ACK lysis buffer (0.15 M NH4Cl, 1 mM KHCO3 pH 7.3). Cells were incubated for 3 min at room temperature to lyse red blood cells. 5 mL sterile PBS was added to the cell suspension and cells were centrifuged at 350 g for 10 min at room temperature. Supernatant was removed and the cell pellet resuspended in 10 mL sterile PBS. Cells were centrifuged again at 350 g for 10 min at room temperature. The supernatant was removed and the cells were resuspended in 1 mL of sterile PBS.
1 μμL of 5 mM CellTrace Violet (Thermo Fisher) was added to the cell suspension and the mixture was swirled to ensure even dispersion of the dye. Cells were incubated for 20 min in the dark at room temperature. 5 mL of pre-warmed complete RPMI medium [(RPMI 1640 (Gibco), 10% heat inactivated FBS (Gibco), 1× Penicillin/Streptomycin/L-Glutamine, 100 μM 2-Mercaptoethanol] was added to the cell suspension and incubated in the dark at room temperature for 5 min. Cells were centrifuged at 350 g for 5 min at room temperature. Supernatant was removed without disrupting the cell pellet. Cells were resuspended in 1 mL complete RPMI medium.
Cells were counted using a haemocytometer and cells were adjusted to 2×10^6 cells/mL using complete RPMI medium. 500 μL of cell suspension was added to wells in a 48-well plate (Nunc) so the final number of cells per well was 1×10^6.
A vial of Dynabeads Mouse T Activator CD3/CD28 beads (4×10^7 beads/mL) was vortexed for 30 sec and 625 μL of beads was aliquoted into a 5 mL polypropylene FACS tube (Sarstedt). 1 mL of complete RPMI medium was added to the beads and mixed by pipetting. The FACS tube was placed in a StemCell Technologies EasySep magnet for 1 minute and supernatant was discarded. The tube was removed from the magnet and washed beads were resuspended in 625 μL of complete RPMI medium. 12.5 μL of bead suspension (5×10^5 beads) was added into appropriate wells of the 48-well plate with cell suspensions to induce T cell activation.
Cells were incubated in a humidified incubator at 37° C. with 5% CO2 for 1 hour before Compound 1 (or vehicle only) was diluted in complete RPMI medium and added to the appropriate wells at the concentration required. The final volume in all wells was 1 mL. Cells were incubated for 3 days in a humidified incubator at 37° C. with 5% CO2.
Cells were harvested from each well by resuspending cells with a pipette and transferring to polypropylene FACS tubes. […]

T lymphocytes = settings: cited from earlier work
FKBP12 enzyme = FKBP12 enzyme (Homo sapiens, UniProt P62942); test: TR-FRET assay, competition for tacrolimus (FK506) binding to FKBP12; settings: 8-point dilution 0.001 nM to 10 μM, 30 min room temperature
Description: The FKBP12 enzyme used in the assay is tagged with a polyhistidine sequence. An anti-6xHis antibody, labelled with a fluorescent donor, F(d), binds the tagged enzyme. The enzyme ligand, FK506 is tagged with a fluorescent acceptor, F(a) and binds the enzyme. […] In the presence of a test inhibitor which competes for FK506, the complex is disrupt& and is no longer in close proximity, resulting in emission at wavelength A due to the F(d). […] The inhibitors were added to the master mix in the assay plate containing the enzyme/antibody/ligand complex, with a final detergent concentration of 0.005%. The reaction was incubated for 30 min at room temperature and then read on a SpectraMax M5 (Molecular Devices) at wavelengths A (615 nm) and B (665 nm). The ratio between light emission (wavelength B/A) is calculated and the blank subtracted values were plotted against the inhibitor concentration in Logio molar and fitted using one site Ki non-linear regression to determine the Kd of the bound test inhibitor.

HPV38-E6/E7 SCC cells = test: Mouse back cSCC tumour model, tacrolimus diet, intra-tumoural injection; settings: in vivo
[1] = system: chemically (TPA+DMBA) induced tumour formation; settings: topical application, mouse model (Jiang et al. 1993); cited from earlier work
skin tumours = settings: 104 weeks, doses up to 260× of the recommended human dose (Protopic prescribing information); cited from earlier work

FKBP12 enzyme, sequence (P62942 whole entry, species assumed): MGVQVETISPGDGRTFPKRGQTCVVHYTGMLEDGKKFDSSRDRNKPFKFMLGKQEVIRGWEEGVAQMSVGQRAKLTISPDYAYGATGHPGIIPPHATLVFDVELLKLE

Structure (SMILES)	rescue of CD8+ T cell proliferation in the presence of tacrolimus (CD8+ T cells; 0.3 μM, 1 μM and 3 μM Compound 1 with 0.6 ng/mL tacrolimus)	effect on CD8+ T cell viability in the absence of tacrolimus (CD8+ T cells; Compound 1 0.3-3 μM, no tacrolimus, 7AAD)	effect on CD8+ T cell proliferation in the absence of tacrolimus (CD8+ T cells; Compound 1 0.3-3 μM, no tacrolimus)	EC50 (T lymphocytes; cultured with tacrolimus 1.2 nM, C57B1/6 mouse spleen T lymphocytes, read-out: ED50, concentration required to inhibit tritiated thymidine uptake of T cells by 50%) [nM]	Kd (FKBP12 enzyme) [nM]	percentage of CD69+ (activated) CD8 T cells isolated from the tumour (HPV38-E6/E7 SCC cells)	percentage of IFN gamma+ CD8 T cells isolated from the tumour (HPV38-E6/E7 SCC cells)	percentage of TNF alpha+ CD8 T cells isolated from the tumour (HPV38-E6/E7 SCC cells)	tacrolimus dependent-tumour growth compared to the vehicle control (HPV38-E6/E7 SCC cells)	tacrolimus dependent-tumour growth compared to the vehicle control, without CD8 depletion (HPV38-E6/E7 SCC cells)	tumour regression after CD8 depletion (HPV38-E6/E7 SCC cells)	CD8+ T cell proliferation compared to the vehicle control (CD8+ T cells; 0.6 ng/mL tacrolimus, CD3/CD28 beads)	reduction of chemically (TPA+DMBA) induced tumour formation [1] [%]	association of skin tumours with daily topical doses (skin tumours)	inhibition of T cell proliferation (T lymphocytes; tacrolimus 1.2 nM) [%]
CC[C@@H]1/C=C(\C)[C@@H](O)[C@H](C)C[C@H](OC)[C@H]2O[C@@](O)(C(=O)C(=O)N3CCCC[C@H]3C(=O)O[C@H](/C(C)=C/[C@@H]3CC[C@@H](O)[C@H](OC)C3)[C@H](C)[C@@H](O)CC1=O)[C@H](C)C[C@@H]2OC [Compound 1, 17-Ethyl-1,14,20-trihydroxy-12-[2′-(4″-hydroxy-3″-methoxycyclohexyl)-1′-methylvinyl]-23,25-dimethoxy-13,19,21,27-tetramethyl-11,28-dioxa-4-azatricyclo-[22.3.1.0^4,9]octacos-18-ene-2,3,10,16-tetraone]	dose dependent rescue; also recorded: dose dependently and significantly rescued	no significant effect	no significant effect	< 50000	2.8	significantly increased	significantly increased	significantly increased	significantly reduced	significantly reduced	no longer able cause tumour regression	–	–	–	–
C=CC[C@@H]1/C=C(\C)C[C@H](C)C[C@H](OC)[C@H]2O[C@@](O)(C(=O)C(=O)N3CCCC[C@H]3C(=O)O[C@H](/C(C)=C/[C@@H]3CC[C@@H](O)[C@H](OC)C3)[C@H](C)[C@@H](O)CC1=O)[C@H](C)C[C@@H]2OC [tacrolimus, reference compound]	–	–	–	–	–	–	–	–	–	–	–	inhibited	80	no association	100
